What all share (type): cell-based, human
Experiment [1] has as its system pSTAT5. The experiment in a line: Phosphoprotein kinetic profiles in bone marrow samples from healthy donors. The protocol: (§1) Phosphoprotein kinetic profiles were analyzed in bone marrow aspiration samples from nine healthy, adult donors (i.e., normal bone marrow or NBM) and from five AML patients. Samples from healthy donors included 5 males and 4 females, ranging in age from 26 to 49 years. Approximately 10 to 20 mL of bone marrow (BM) samples were collected from the posterior iliac crest of the volunteers using IRB approved protocols. The BM samples were filtered using a 40 μm Nylon cell strainer to remove marrow particles and the white blood cell concentration determined using a blood analyzer. […] The samples were immediately used for subsequent experimentation.
(§2) To assess the signal transduction response after growth factor simulation, 100 to 200 μL of processed samples including about 2×10^6 WBC/100 μL were added to tubes and incubated at 37° C. for 30 minutes. For inhibition experiments, cells were incubated with 100 μM U0126, 1 μg/mL rapamycin, or both for at least 20 minutes prior to cytokine addition and in all cases for 30 min prior to formaldehyde addition. […] After stimulation the cells were immediately fixed by the addition of formaldehyde to a final concentration of 4% v/v and incubated for 10 minutes at room temperature. Following fixation, red blood cells were lysed by the addition of TRITON-X/PBS solution (0.1% v/v final concentration Triton X-100) supplemented with a 1 x phosphatase inhibitor cocktail (PIC; final concentrations: 0.2 mM sodium orthovanadate, 2 mM sodium pyrophosphate decahydrate, 2 mM [3-glycerophosphate, and 10 mM sodium fluoride) and incubation at 37° C. for 20 minutes. The incubated solution was chilled by the addition of ice-cold Wash Buffer (final concentration 1×PBS and either 4% bovine serum albumin (BSA) or 4% heat-inactivated fetal bovine serum (FBS), supplemented with 1×PIC), and the samples were centrifuged at 300 g for 6 minutes at 4° C.). If the lysis was incomplete, samples were retreated with 0.1% Triton X-100 at 37° C. for 10 to 20 minutes. After removal of the supernatant, cells were washed twice in ice-cold Wash Buffer supplemented with 1×PIC and permeabilized by the addition of pre-chilled 80% methanol while simultaneously vortexing the tube and incubated on ice for 10 minutes. Methanol was removed by centrifugation, the pellet was washed with ice-cold 1×PBS, and non-specific binding was blocked by the addition of ice-cold Wash Buffer supplemented with 1×PIC and incubation at 4° C. for a minimum of 30 minutes.
(§3) To stain cells with fluorescent conjugated monoclonal antibodies, the incubated solution was centrifuged to remove the supernatant and the pellet was incubated for 60 minutes at 4° C. with an antibody staining solution including 0.25 μg to 0.50 μg of pS6-Pacific Blue, pERK-ALEXA 488, pSTAT5-ALEXA 647, CD34-PE, CD45-PerCP, and CD117-PC7. Samples were washed three times with ice-cold Wash Buffer supplemented with 1×PIC, resuspended in 0.5 mL ice-cold Wash Buffer supplemented with 1×PIC including 0.5 μg/mL DAPI, and analyzed by flow cytometryusing a BD LSR II Flow Cytometer, equipped with a High Throughput Sampler (HTS).
(§4) First, doublets, aggregates, and debris were excluded by gating on single cell events in the SSC-Area versus SSC-Height histogram. Then, in events passing through this gate, debris near the origin of the FSC-Area versus SSC-Area plot (gray in FIG. 4A) was excluded by drawing a gate around an area encompassing, primarily, lymphocytes, monocytes, and granulocytes (LMG, black in FIG. 4A). Next, in cells passing through the LMG gate, the blast region (circle in FIG. 4B) was identified in the CD45 versus SSC-Area histogram (FIG. 4B). From this blast population, CD34+, CD117+ cells were identified in the CD34 versus CD117 plot (boxed area in FIG. 4C).

Experiment [2] concerns pERK. The description is as above. The protocol:
as §1, §2, §3, §4

For experiment [3], the system named is pS6. The experiment is described as above. The protocol:
as §1, §2, §3, §4

In experiment [4] the test system is pSTAT5. The experiment can be described thus: Phosphoprotein kinetic profiles in CD34+, CD117+ cells of AML bone marrow samples. The settings on record: AML1 sample (Example 6). How it is done:
as §2, §3
(§5) First, doublets, aggregates, and debris were excluded by gating on single cell events in the SSC-Area versus SSC-Height histogram. Then, in events passing through this gate, debris near the origin of the FSC-Area versus SSC-Area plot (gray in FIG. 4A) was excluded by drawing a gate around an area encompassing, primarily, lymphocytes, monocytes, and granulocytes (LMG, black in FIG. 4A). Next, in cells passing through the LMG gate, the blast region (circle in FIG. 4B) was identified in the CD45 versus SSC-Area histogram (FIG. 4B). From this blast population, CD34+, CD117+ cells were identified in the CD34 versus CD117 plot (boxed area in FIG. 4C). Finally, these cells were further analyzed for cytokine-mediated increases in phosphorylation by constructing gates in the single parameter histograms (for positively and negatively stained events, i.e., for the phosphorylated and non-phosphorylated forms, respectively, of each protein) for pS6 (FIGS. 4D and 4G), pERK (FIGS. 4E and 4H), and pSTAT5 (FIGS. 4F and 4I). […] The dotted lines in each of these histograms represent unstimulated cells at t=0 min. FCS files were processed with WinList 6.0 3D (Verity Software House).

The subject of experiment [5] is pERK. The experiment is described as above. The settings on record: CD34^+, CD117^+ cells, AML1 sample (Example 6). How it is done:
as §2, §3, §5

In experiment [6] the test system is pS6. Described as above. As to conditions: CD34^+, CD117^+ cells, AML1 sample (Example 6). How it is done: as §2, §3, §5
[7] abbreviates: CD34^+, CD117^+ cells, healthy donor samples.
Setting [8] is: monocytes vs CD34^+, CD117^+ cells.
[9] abbreviates: monocytes, healthy donor bone marrow.

The text below walks through data of US20130210034A1, “COMPLEX PHOSPHOPROTEIN ACTIVATION PROFILES” (BECKMAN COULTER, INC., priority 2005, published 2013).

“And” between values parts separate entries of the source, which are not always exact repeats. Equal entries are not always repeated. A value given as a limit tells only on which side of the number the result lay.

As to “Granulocyte-Macrophage Colony-Stimulating Factor [GM-CSF]”, the “pSTAT5 RI (response interval)” value in the experiment with pSTAT5 [1] (setting [7]) is more than 60 min. Besides, in the experiment on pSTAT5 [1] (setting [8]), the “pSTAT5 maximal fold stimulation in monocytes, times the level observed in CD34^+, CD117^+ cells” value is given as “about 500 times”. For the same substance, the “pSTAT5 maximal fold stimulation” value with pSTAT5 [1] (setting [9]) is listed as “approximately 10,000”. In the experiment on pERK [2] (setting [7]), the “pERK Amp (peak amplitude of fold stimulation)” value is 4.5 and 4.5 ± 0.6; the “pERK RI (response interval)” value is listed as “Variable”. In addition, the “pERK maximal fold stimulation” value in the experiment with pERK [2] (setting [9]) is reported as “about 100”. Besides, in the experiment on pS6 [3] (setting [7]), the “pS6 Amp (peak amplitude of fold stimulation)” value was 1.8 and 1.8 ± 0.3; the “pS6 RI (response interval)” value was “Variable”. Also, the “pS6 maximal fold stimulation in monocytes, times the level observed in CD34^+, CD117^+ cells” value in the experiment on pS6 [3] (setting [8]) was “about 100 times”. Also, in the experiment on pS6 [3] (setting [9]), the “pS6 maximal fold stimulation” value is “about 500”. In the experiment with pSTAT5 [4], the “pSTAT5 Amp (peak amplitude of fold stimulation)” value amounted to 110 and the “pSTAT5 RI (response interval)” value is more than 60 min. Moreover, in the experiment with pERK [5], the “pERK Amp (peak amplitude of fold stimulation)” value came to 6 and the “pERK RI (response interval)” value turned out to be 10 min. In addition, in the experiment on pS6 [6], the “pS6 Amp (peak amplitude of fold stimulation)” value turned out to be 1 and the “pS6 RI (response interval)” value is recorded as 20 min.
